Data: US10981926B2 (Janssen Pharmaceutica NV, priority 2016, dated 2021)

Experiments:
Format in all cases: cell-based
[1] = target: T1, F876L mutant Androgen Receptor (AR-F876L) (Homo sapiens (Human), UniProt P10275, F877L); assay: LNCaP-AR-F876L AG reporter assay (agonist mode); conditions: for LNCaP-AR-F876L AG pEC50 / EC50: agonist mode, pEC50 = −Log10(EC50 in Molar); for Emax: maximum % stimulation (agonist response) over the tested concentration range, read-out: LNCaP-AR-F876L AG MAX % Stim; for EC50: read-out: LNCaP-AR-F876L AG pEC50 (converted)
[2] = target: T1, F876L mutant Androgen Receptor (AR-F876L); assay: LNCaP-AR-F876L ANT reporter assay (antagonist mode); conditions: for LNCaP-AR-F876L ANT pIC50 / IC50: antagonist mode, pIC50 = −Log10(IC50 in Molar); for Emax: maximum % inhibition of R1881 control response over the tested concentration range, read-out: LNCaP-AR-F876L ANT MAX % Inh; for IC50: read-out: LNCaP-AR-F876L ANT pIC50 (converted)
[3] = target: T2, wild-type Androgen Receptor (AR-wt) (Homo sapiens (Human), UniProt P10275); assay: LNCaP-AR-wt AG reporter assay (agonist mode); conditions: for LNCaP-AR-wt AG pEC50 / EC50: agonist mode, pEC50 = −Log10(EC50 in Molar); for Emax: maximum % stimulation (agonist response) over the tested concentration range, read-out: LNCaP-AR-wt AG MAX % Stim; for EC50: read-out: LNCaP-AR-wt AG pEC50 (converted)
[4] = target: T2, wild-type Androgen Receptor (AR-wt); assay: LNCaP-AR-wt ANT reporter assay (antagonist mode); conditions: for LNCaP-AR-wt ANT pIC50 / IC50: antagonist mode, pIC50 = −Log10(IC50 in Molar); for Emax: maximum % inhibition of R1881 control response over the tested concentration range, read-out: LNCaP-AR-wt ANT MAX % Inh; for IC50: read-out: LNCaP-AR-wt ANT pIC50 (converted)

T2 sequence (P10275 whole entry): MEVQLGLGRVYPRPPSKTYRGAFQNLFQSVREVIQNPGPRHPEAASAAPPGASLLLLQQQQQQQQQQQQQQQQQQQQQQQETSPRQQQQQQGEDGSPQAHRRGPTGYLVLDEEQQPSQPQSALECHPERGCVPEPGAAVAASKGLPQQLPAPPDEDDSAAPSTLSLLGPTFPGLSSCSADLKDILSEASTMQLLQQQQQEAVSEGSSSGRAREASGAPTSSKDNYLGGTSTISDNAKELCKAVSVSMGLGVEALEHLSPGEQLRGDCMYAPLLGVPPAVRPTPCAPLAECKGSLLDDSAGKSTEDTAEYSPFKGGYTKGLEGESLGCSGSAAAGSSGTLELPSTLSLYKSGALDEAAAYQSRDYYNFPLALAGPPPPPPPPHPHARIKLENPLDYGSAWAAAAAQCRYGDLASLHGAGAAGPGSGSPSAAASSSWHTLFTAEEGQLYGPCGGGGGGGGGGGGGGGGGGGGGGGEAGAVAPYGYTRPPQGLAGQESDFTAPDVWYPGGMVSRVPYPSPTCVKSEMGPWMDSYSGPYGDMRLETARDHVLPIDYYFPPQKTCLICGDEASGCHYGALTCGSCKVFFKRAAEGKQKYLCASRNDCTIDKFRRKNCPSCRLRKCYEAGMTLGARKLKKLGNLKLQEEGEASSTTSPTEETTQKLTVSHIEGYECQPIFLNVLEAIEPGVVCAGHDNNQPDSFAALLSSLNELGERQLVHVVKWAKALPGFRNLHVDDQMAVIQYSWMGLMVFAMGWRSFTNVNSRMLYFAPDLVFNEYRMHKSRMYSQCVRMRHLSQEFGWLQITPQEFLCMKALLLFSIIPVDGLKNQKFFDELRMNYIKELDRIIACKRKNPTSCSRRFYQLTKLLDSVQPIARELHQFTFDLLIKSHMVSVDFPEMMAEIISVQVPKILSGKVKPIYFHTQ
T1 sequence (P10275 whole entry F877L): as the sequence (P10275 whole entry) above, with F877L counted along it

Compound	Emax [1] [%]	Emax [2] [%]	Emax [3] [%]	Emax [4] [%]	EC50 [1] [nM]	IC50 [2] [nM]	EC50 [3] [nM]	IC50 [4] [nM]	LNCaP-AR-F876L AG pEC50 [1]	LNCaP-AR-F876L ANT pIC50 [2]	LNCaP-AR-wt AG pEC50 [3]	LNCaP-AR-wt ANT pIC50 [4]
N#Cc1ncc(N2C(=O)C3(CCC3)N(c3ccc(C4CC5CCC(C4)N5)cc3)C2=S)cc1C(F)(F)F (stereo not drawn) [Cpd 123, 5-(5-(4-(8-azabicyclo[3.2.1]octan-3-yl)phenyl)-8-oxo-6-thioxo-5,7-diazaspiro[3.4]octan-7-yl)-3-(trifluoromethyl)picolinonitrile]	0.2	102	0.3	103					<4.82	6.03	<4.82	5.64
CN1CCc2cc(N3C(=S)N(c4cnc(C#N)c(C(F)(F)F)c4)C(=O)C34CCC4)ccc2C1 [Cpd 125, 5-[8-(2-methyl-3,4-dihydro-1H-isoquinolin-6-yl)-5-oxo-7-thioxo-6,8-diazaspiro[3.4]octan-6-yl]-3-(trifluoromethyl)pyridine-2-carbonitrile]	0	98.1	0.6	99.5	> 15100	1580	> 15100	2690				
CN1C2C=C(c3ccc(N4C(=S)N(c5cnc(C#N)c(C(F)(F)F)c5)C(=O)C45CCC5)cc3)CC1CC2 (stereo not drawn) [Cpd 127, 5-[8-[4-(8-methyl-8-azabicyclo[3.2.1]oct-3-en-3-yl)phenyl]-5-oxo-7-thioxo-6,8-diazaspiro[3.4]octan-6-yl]-3-(trifluoromethyl)pyridine-2-carbonitrile]	0.4	102	0.5	102					<4.82	6.37	<4.82	6.23
N#Cc1ncc(N2C(=O)C3(CCC3)N(C3CCC(NC(=O)c4ccccc4)CC3)C2=S)cc1C(F)(F)F (stereo not drawn) [Cpd 134, N-[4-[6-[6-cyano-5-(trifluoromethyl)-3-pyridyl]-5-oxo-7-thioxo-6,8-diazaspiro[3.4]octan-8-yl]cyclohexyl]benzamide]					> 15100	339	> 15100	759				
N#Cc1ncc(N2C(=O)C3(CCC3)N(c3ccc(OC4C5CCC4CNC5)nc3)C2=S)cc1C(F)(F)F (stereo not drawn) [Cpd 139, 5-[8-[6-(3-azabicyclo[3.2.1]octan-8-yloxy)-3-pyridyl]-5-oxo-7-thioxo-6,8-diazaspiro[3.4]octan-6-yl]-3-(trifluoromethyl)pyridine-2-carbonitrile]	0.1	99.8	1.2	102	> 15100	513	> 15100	589				
CC1(Oc2ccc(N3C(=S)N(c4cnc(C#N)c(C(F)(F)F)c4)C(=O)C34CCC4)cc2)CCNCC1 [Cpd 140, 5-[8-[4-[(4-methyl-4-piperidyl)oxy]phenyl]-5-oxo-7-thioxo-6,8-diazaspiro[3.4]octan-6-yl]-3-(trifluoromethyl)pyridine-2-carbonitrile]	0	99.5	0.3	99.9	> 15100	339	> 15100	1000				
CN1CC(CCOc2ccc(N3C(=S)N(c4cnc(C#N)c(C(F)(F)F)c4)C(=O)C34CCC4)cc2)C1 [Cpd 142, 5-[8-[4-[2-(1-methylazetidin-3-yl)ethoxy]phenyl]-5-oxo-7-thioxo-6,8-diazaspiro[3.4]octan-6-yl]-3-(trifluoromethyl)pyridine-2-carbonitrile]	0.8	99	-0.2	101	> 15100	117	> 15100	112				
N#Cc1ncc(N2C(=O)C3(CCC3)N(c3ccc(OCC4(N)COC4)cc3)C2=S)cc1C(F)(F)F [Cpd 145, 5-[8-[4-[(3-aminooxetan-3-yl)methoxy]phenyl]-5-oxo-7-thioxo-6,8-diazaspiro[3.4]octan-6-yl]-3-(trifluoromethyl)pyridine-2-carbonitrile]	1.8	98.8	0.5	101	> 15100	302	> 15100	178				
CN1CC2CCC(C1)C2Oc1ccc(N2C(=S)N(c3cnc(C#N)c(C(F)(F)F)c3)C(=O)C23CCC3)cc1 (stereo not drawn) [Cpd 146, 5-[8-[4-[(3-methyl-3-azabicyclo[3.2.1]octan-8-yl)oxy]phenyl]-5-oxo-7-thioxo-6,8-diazaspiro[3.4]octan-6-yl]-3-(trifluoromethyl)pyridine-2-carbonitrile]	-0.1	101	0.1	103	> 15100	61.7	> 15100	100				
N#Cc1ncc(N2C(=O)C3(CCC3)N(c3ccc(OC4CC5CC4CN5)cc3)C2=S)cc1C(F)(F)F [Cpd 150, (R,S)-5-[8-[4-(2-azabicyclo[2.2.1]heptan-5-yloxy)phenyl]-5-oxo-7-thioxo-6,8-diazaspiro[3.4]octan-6-yl]-3-(trifluoromethyl)pyridine-2-carbonitrile]	-0.2	103	0.4	102	> 15100	245	> 15100	490				
CC(C)(C)OC(=O)N1CCC12CC(Oc1ccc(N3C(=S)N(c4cnc(C#N)c(C(F)(F)F)c4)C(=O)C34CCC4)cn1)C2 (stereo not drawn) [Cpd 153, tert-butyl 6-[[5-[6-[6-cyano-5-(trifluoromethyl)-3-pyridyl]-5-oxo-7-thioxo-6,8-diazaspiro[3.4]octan-8-yl]-2-pyridyl]oxy]-3-azaspiro[3.3]heptane-3-carboxylate]	-0.1	100	0.1	101	> 15100	339	> 15100	398				

Further lines, with some results ahead:

Emax [1] [%]	Emax [2] [%]	Emax [3] [%]	Emax [4] [%]	EC50 [1] [nM]	IC50 [2] [nM]	EC50 [3] [nM]	IC50 [4] [nM]	Compound	LNCaP-AR-F876L AG pEC50 [1]	LNCaP-AR-F876L ANT pIC50 [2]	LNCaP-AR-wt AG pEC50 [3]	LNCaP-AR-wt ANT pIC50 [4]
0.5	103	0.3	103	> 15100	39.8	> 15100	115	CC(=O)N1CCC(Cn2ncc3cc(N4C(=S)N(c5cnc(C#N)c(C(F)(F)F)c5)C(=O)C45CCC5)ccc32)CC1 [Cpd 124, 5-[8-[1-[(1-acetyl-4-piperidyl)methyl]indazol-5-yl]-5-oxo-7-thioxo-6,8-diazaspiro[3.4]octan-6-yl]-3-(trifluoromethyl)pyridine-2-carbonitrile]				
0.8	100	0.2	101	> 15100	204	> 15100	275	N#Cc1ncc(N2C(=O)C3(CCC3)N(c3ccc4nn(CC5CCNCC5)cc4c3)C2=S)cc1C(F)(F)F [Cpd 126, 5-[5-oxo-8-[2-(4-piperidylmethyl)indazol-5-yl]-7-thioxo-6,8-diazaspiro[3.4]octan-6-yl]-3-(trifluoromethyl)pyridine-2-carbonitrile]				
0.3	101	0.2	101	> 15100	468	> 15100	1070	N#Cc1ncc(N2C(=O)C3(CCC3)N(c3ccc4c(cnn4CC4CCNCC4)c3)C2=S)cc1C(F)(F)F [Cpd 128, 5-(8-Oxo-5-(1-(piperidin-4-ylmethyl)-1H-indazol-5-yl)-6-thioxo-5,7-diazaspiro[3.4]octan-7-yl)-3-(trifluoromethyl)picolinonitrile]				
0.9	98.7	0.5	101	> 15100	148	> 15100	372	CN1CCC(Cn2ncc3cc(N4C(=S)N(c5cnc(C#N)c(C(F)(F)F)c5)C(=O)C45CCC5)ccc32)CC1 [Cpd 132, 5-(5-(1-((1-methylpiperidin-4-yl)methyl)-1H-indazol-5-yl)-8-oxo-6-thioxo-5,7-diazaspiro[3.4]octan-7-yl)-3-(trifluoromethyl)picolinonitrile]				
0.4	101	-0.2	103	> 15100	355	> 15100	1350	CN1CCC(C)(Oc2ccc(N3C(=S)N(c4cnc(C#N)c(C(F)(F)F)c4)C(=O)C34CCC4)cc2)CC1 [Cpd 143, 5-[8-[4-[(1,4-dimethyl-4-piperidyl)oxy]phenyl]-5-oxo-7-thioxo-6,8-diazaspiro[3.4]octan-6-yl]-3-(trifluoromethyl)pyridine-2-carbonitrile]				
-0.1	101	-0.1	102	> 15100	209	> 15100	224	CN1CC2CCC(C1)C2Oc1ccc(N2C(=S)N(c3cnc(C#N)c(C(F)(F)F)c3)C(=O)C23CCC3)cn1 (stereo not drawn) [Cpd 147, 5-[8-[6-[(3-methyl-3-azabicyclo[3.2.1]octan-8-yl)oxy]-3-pyridyl]-5-oxo-7-thioxo-6,8-diazaspiro[3.4]octan-6-yl]-3-(trifluoromethyl)pyridine-2-carbonitrile]				
